Test results reported in US20260125411A1, “COMPOUND EMITTING LIGHT UNDER SPECIFIC CONDITIONS, AND METHOD FOR DETECTING CANCER STEM CELLS USING SAME” (Kyoto University, priority 2022, published 2026).

Tests used:
[1] = tested on: SUIT-2 cells; test: Observation with confocal microscope, SUIT-2; format: cell-based, human; conditions: SUIT-2, FDG 20 μM, ex 488 nm, detection 500-600 nm
Procedure: (§1) Fluorescence imaging was performed using a confocal microscope LSM710 (Carl Zeiss AG). The excitation light used was at 488 nm (detection wavelength: 500-600 nm) and 633 nm (detection wavelength: 647-759 nm).
(§2) The cells were seeded in a 35 mm micro-Dish (μ-Dish 35 mm, high, ibidi, Germany) and cultured for 24 hours, followed by washing with DMEM (for SUIT-2 cells, NIH3T3 cells, HUVEC cells) or RPMI-1640 (for KATO-3 cells) containing no phenol red and no FBS. A dye and Aldefluor™ (StemCell Technologies, Inc., Canada) or FDG (Sigma-Aldrich, USA) were dissolved in DMSO and diluted in the medium. The cells were treated with 2 mL of the medium containing the dye and Aldefluor™ or FDG and cultured in air containing 5% CO2 at 37° C. for one hour, followed by observation with the confocal microscope. The number of cells seeded was 10×10^5 for KATO-3 cells, and 8×10^5 for the other cell types. The final concentrations of CHO_βgal, Aldefluor™, and FDG were 20 μM, 1 μM, and 20 μM, respectively. The DMSO content was 2%. FIG. 4 and FIG. 5 show the measurement results.

[2] = tested on: KATO-III cells; test: Observation with confocal microscope, KATO-III; format: cell-based, human; conditions: FDG 20 μM, ex 488 nm, detection 500-600 nm
Procedure: as §1, §2

O=C1OC2(c3ccc(O[C@@H]4O[C@H](CO)[C@H](O)[C@H](O)[C@H]4O)cc3Oc3cc(O[C@@H]4O[C@H](CO)[C@H](O)[C@H](O)[C@H]4O)ccc32)c2ccccc21 [FDG, fluorescein di-β-D-galactopyranoside]
emission in cells [1]: emission was observed throughout the cells
emission in cells [2]: emission was observed throughout the cells
